In brackets after ≈: the same amount, converted by molar mass. Like-named read-outs stand apart in the source and are kept apart here.
Legend:
KRAS (G12C)::SOS1 = target: T1, KRAS (G12C)::SOS1 (Homo sapiens, UniProt P01116, C118S/C51S/C80L/G12C); experiment: KRAS::SOS1 AlphaScreen binding assay, KRAS G12C
T1 construct: KRAS (G12C) 1-169, N-terminal 6His-tag for purification, cleaved off; 6His-tag (N, cleaved yes)
Procedure: (§1) Low IC50 values in this assay setting are indicative of strong inhibition of protein-protein interaction between SOS1 and KRAS:
(§2) These assays measure the inhibitory effect of compounds on KRAS mutant protein-protein interactions using the Alpha Screen technology by Perkin Elmer.
(§3) For the chosen highest assay concentration of 100 μM, 150 nL of compound solution are transferred from a 10 mM DMSO compound stock solution. A series of eleven fivefold dilutions per compound are transferred to the assay plate, compound dilutions are tested in duplicates. DMSO are added as backfill to a total volume of 150 nL.
(§4) The assays run on a fully automated robotic system in a darkened room below 100 Lux. To 150 nl of compound dilution 10 μl of a mix including KRAS mutant protein, SOS1 (final assay concentrations see above) and GDP nucleotide (Sigma G7127; final assay concentration 10 μM) in assay buffer (1×PBS, 0.1% BSA, 0.05% Tween 20) are added into columns 1-24. After 30 minutes incubation time 5 μl of Alpha Screen bead mix in assay buffer are added into columns 1-23.
(§5) Plates are kept at room temperature in a darkened incubator. After an additional 60 minutes incubation time the signal is measured in a PerkinElmer Envision HTS Multilabel Reader using the AlphaScreen specs from PerkinElmer.
(§6) IC50 values are calculated and analyzed with Boehringer Ingelheim's MEGALAB IC50 application using a 4 parametric logistic model.

[1] = Solubility measurement (DMSO solution precipitation method); assay type: physicochemical; settings: aqueous buffer, kinetic from dmso stock, ambient temperature
Procedure: The DMSO solution is diluted with an aqueous medium (McIlvaine buffer with pH=4.5 or 6.8) to a final concentration of 250 μM. After 24 h of shaking at ambient temperature a potentially formed precipitate is removed by filtration. The concentration of the test compound in the filtrate is determined by LC-UV methods by calibrating the signal to the signal of a reference solution with complete dissolution of the test compound in acetonitrile/water (1:1) with known concentration.

KRAS G12D Ba/F3 cells = KRAS G12D Ba/F3 cells (Homo sapiens, UniProt P01116, G12D, cells depend on it); experiment: Ba/F3 proliferation assay, KRAS G12D; assay type: cell-based; settings: 72 h, AlamarBlue; read-out: KRAS G12D Ba/F3 IC50
Procedure: (§7) To generate KRASG12-dependent Ba/F3 models, Ba/F3 cells are transduced with retroviruses containing vectors that harbor KRASG12 isoforms. Platinum-E cells (Cell Biolabs) are used for retrovirus packaging. Retrovirus is added to Ba/F3 cells. To ensure infection, 4 μg/mL polybrene is added and cells are spinfected. […] Cells with an infection efficiency of 10% to 20% are further cultivated and puromycin selection with 1 μg/mL is initiated. As a control, parental Ba/F3 cells are used to show selection status. Selection is considered successful when parental Ba/F3 cells cultures died. To evaluate the transforming potential of KRASG12 mutations, the growth medium is no longer supplemented with IL-3. Ba/F3 cells harboring the empty vector are used as a control. Approximately ten days before conducting the experiments, puromycin is left out. […] All treatments are performed in technical duplicates. […] AlamarBlue™(ThermoFisher), a viability stain, is added and fluorescence measured in the PerkinElmer Envision HTS Multilabel Reader. The raw data are imported into and analyzed with the Boehringer Ingelheim proprietary software MegaLab (curve fitting based on the program PRISM, GraphPad Inc.).

KRAS G12C Ba/F3 cells = KRAS G12C Ba/F3 cells (Homo sapiens, UniProt P01116, G12C, cells depend on it); experiment: Ba/F3 proliferation assay, KRAS G12C; assay type: cell-based; settings: 72 h, AlamarBlue; read-out: KRAS G12C Ba/F3 IC50
Procedure: as §7

LOVO cells (CRC, G13D) = experiment: LOVO CTG proliferation assay (120 h); assay type: cell-based; settings: Homo sapiens, CellTiter-Glo
Procedure: LOVO cells (ATCC CCL-229) are dispensed into 384-well plates, flat and clear bottom (Greiner, PNr. 781091) at a density of 1000 cells per well in 60 μL DMEM (Sigma D6429)+10% Fetal Calf Serum (HyClone, PNr.: SH30084.03) and incubated at 37° C. in a CO2 incubator overnight. The next day, compounds (10 mM stock in DMSO) are added with the ECHO acoustic liquid handler system (Beckman Coulter), including DMSO controls. Plates are incubated for 120 h, and cell viability is measured using CellTiter-Glo luminescent cell viability reagent (Promega product code G7570). Viability (stated as percent of control) is defined as relative luminescence units RLU of each well divided by the RLU of cells in DMSO controls. IC50 values are determined from viability measurements by non-linear regression using a four-parameter model.

[2] = test system: AsPC-1 cells (pancreatic cancer, G12D); experiment: AsPC-1 CTG proliferation assay (120 h); assay type: cell-based; settings: Homo sapiens, ASPC1, CellTiter-Glo
Procedure: The CTG assay is designed to measure quantitatively the proliferation of AsPC-1 cells (ATCC […]), using the CellTiter Glow Assay Kit (Promega G7571). Cells are grown in RPMI medium (ATCC) supplemented with Fetal Calf Serum (Life Technologies, Gibco BRL, Cat. No. 10270-106). On “day 0” 2000 AsPC-1 cells are seeded in 60 μL RPMI ATCC+10% FCS+ Penstrep in a 384-well plate, flat and clear bottom (Greiner, PNr. 781091). Cells are then incubated in the plates at 37° C. in a CO2 incubator overnight. On day 1, compounds (10 mM stock in DMSO) are added with the ECHO acoustic liquid handler system (Beckman Coulter), including DMSO controls. Plates are incubated for 120 h, and cell viability is measured using CellTiter-Glo luminescent cell viability reagent (Promega product code G7570). Viability (stated as percent of control) is defined as relative luminescence units RLU of each well divided by the RLU of cells in DMSO controls. IC50 values are determined from viability measurements by non-linear regression using a four-parameter model.

KRAS (G12D)::SOS1 = target: T2, KRAS (G12D)::SOS1 (Homo sapiens, UniProt P01116, G12D); experiment: KRAS::SOS1 AlphaScreen binding assay, KRAS G12D
T2 construct: KRAS (G12D) 1-169, N-terminal 6His-tag, C-terminal avi-tag; 6His-tag (N); purchased Xtal BioStructures, Inc. (KRAS G12D); Viva Biotech Ltd (SOS1)
Procedure: as §1, §2, §3, §4, §5, §6

KRAS G12V Ba/F3 cells = KRAS G12V Ba/F3 cells (Homo sapiens, UniProt P01116, G12V, cells depend on it); experiment: Ba/F3 proliferation assay, KRAS G12V; assay type: cell-based; settings: 72 h, AlamarBlue; read-out: KRAS G12V Ba/F3 IC50
Procedure: as §7

[3] = McIlvaine buffer pH 4.5, 24 h, read-out: solubility pH 4.5
[4] = McIlvaine buffer pH 6.8, 24 h, read-out: solubility pH 6.8

T1 sequence (P01116 1-169 isoform P01116-2 G12C/C51S/C80L/C118S): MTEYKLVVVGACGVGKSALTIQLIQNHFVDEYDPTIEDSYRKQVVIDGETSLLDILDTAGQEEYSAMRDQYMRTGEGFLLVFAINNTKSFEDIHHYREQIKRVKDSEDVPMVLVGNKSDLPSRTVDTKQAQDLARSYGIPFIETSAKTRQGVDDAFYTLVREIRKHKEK
KRAS G12V Ba/F3 cells, sequence (P01116 whole entry G12V): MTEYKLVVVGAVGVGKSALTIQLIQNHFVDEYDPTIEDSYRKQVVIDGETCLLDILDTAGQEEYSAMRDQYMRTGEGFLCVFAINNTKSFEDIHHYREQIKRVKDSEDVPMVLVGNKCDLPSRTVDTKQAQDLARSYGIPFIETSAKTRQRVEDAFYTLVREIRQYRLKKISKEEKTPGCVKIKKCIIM
KRAS G12C Ba/F3 cells, sequence (P01116 whole entry G12C): as the sequence (P01116 whole entry G12V) above, with V12C counted along it
KRAS G12D Ba/F3 cells, sequence (P01116 whole entry G12D, canonical isoform): as the sequence (P01116 whole entry G12V) above, with V12D counted along it
T2 sequence (P01116 1-169 isoform P01116-2 G12D): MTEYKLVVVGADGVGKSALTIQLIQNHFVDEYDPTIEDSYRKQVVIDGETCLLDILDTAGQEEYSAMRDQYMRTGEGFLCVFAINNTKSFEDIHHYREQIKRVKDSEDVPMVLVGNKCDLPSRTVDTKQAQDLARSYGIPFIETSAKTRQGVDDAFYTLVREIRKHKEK

Row | IC50 (KRAS (G12C)::SOS1) [nM] | solubility at 24 h [1, 3] [µg/mL] | solubility at 24 h [1, 4] [µg/mL] | GI50 (KRAS G12D Ba/F3 cells) [nM] | GI50 (KRAS G12C Ba/F3 cells) [nM] | IC50 (LOVO cells (CRC, G13D)) [nM] | IC50 [2] [nM] | IC50 (KRAS (G12D)::SOS1) [nM] | GI50 (KRAS G12V Ba/F3 cells) [nM] | Structure (SMILES)
1 | 7 | 92 (≈ 193 µM) | 51 (≈ 107 µM) | 32 | 88 | 2870 | 3620 | 3 |  | C[C@H]1CNCCCN1c1nccc(-c2noc3c2CCC[C@@]32CCCc3sc(N)c(C#N)c32)n1 (single isomer, unassigned) [IIb-5]
2 | 44 | 57 (≈ 116 µM) | 32 (≈ 65.4 µM) | 469 | 666 | 2420 | 3570 | 31 | 337 | CC1Cc2c(-c3ccnc(N4CCCNC[C@@H]4C)n3)noc2C2(CCCc3sc(N)c(C#N)c32)C1 (stereo partly shown) [IIb-1]
3 | 39 | 53 (≈ 104 µM) | 27 (≈ 52.8 µM) | 798 | 507 | 3250 | 5110 | 21 | 478 | C[C@H]1CNCCCN1c1nccc(-c2noc3c2CC(F)(F)CC32CCCc3sc(N)c(C#N)c32)n1 (stereo partly shown) [IIb-2]
4 | 3 | > 117 | > 120 | 16 | 23 |  | 650 | 2 | 25 | C[C@H](Oc1ccnc(-c2noc3c2CCC[C@@]32CCCc3sc(N)c(C#N)c32)n1)[C@@H]1CCCN1C [IIb-3]
5 | 19 |  |  | 174 | 485 | 1660 | 4130 | 13 | 138 | C[C@H]1CNCCCN1c1nccc(-c2noc3c2CSCC32CCCc3sc(N)c(C#N)c32)n1 (stereo partly shown) [IIb-4]
6 | 4 | > 103 | > 100 | 123 | 131 | 479 | 2800 | 2 | 136 | C[C@H]1CNCCCN1c1nccc(-c2noc3c2OCCC32CCCc3sc(N)c(C#N)c32)n1 (stereo partly shown) [IIb-7]
7 | 8 | > 115 | > 114 | 155 | 254 | 3810 | 5520 | 4 | 203 | C[C@H](Oc1nccc(-c2noc3c2CCC[C@@]32CCCc3sc(N)c(C#N)c32)n1)[C@@]1(C)CCCN1C [IIe-1]
8 | 14 |  |  | 101 | 126 | 1100 | 5970 | 5 |  | C[C@@H]1NCCCN(c2nccc(-c3onc4c3CCC[C@@]43CCCc4sc(N)c(C#N)c43)n2)[C@H]1C [Ib-2]
9 | 9 | > 104 | 95 (≈ 199 µM) | 211 | 295 | 7250 | > 25000 | 4 |  | C[C@H]1CNCCCN1c1ncnc(-c2onc3c2CCC[C@@]32CCCc3sc(N)c(C#N)c32)n1 [Ib-4]
10 | 3 | > 117 | > 108 | 27 | 42 | 10000 | 3570 | 1 |  | C[C@H]1[C@@H]2CCCN2CCCN1c1nccc(-c2onc3c2CCC[C@@]32CCCc3sc(N)c(C#N)c32)n1 [Id-1]
11 | 3 |  |  | 28 | 43 | 333 | 5480 | 2 | 29 | CO[C@@H]1C[C@@H]([C@H](C)Oc2nccc(-c3onc4c3CCC[C@@]43CCCc4sc(N)c(C#N)c43)n2)N(C)C1 [Ie-1]
12 | 5 | > 125 | 41 (≈ 80.6 µM) | 66 | 155 | 567 | 2560 | 2 | 106 | C[C@H](Oc1nccc(-c2onc3c2CCC[C@@]32CCCc3sc(N)c(C#N)c32)n1)[C@@H]1C[C@@H](F)CN1C [Ie-2]
13 | 7 | > 125 | > 123 | 33 | 49 | 539 | 8030 | 3 | 84 | CCN1[C@H]2C[C@H]2C[C@H]1[C@H](C)Oc1nccc(-c2onc3c2CCC[C@@]32CCCc3sc(N)c(C#N)c32)n1 [Ie-3]
14 | 6 |  |  | 66 | 118 | 178 | 5860 | 4 | 92 | CC(Oc1nccc(-c2onc3c2CCC[C@@]32CCCc3sc(N)c(C#N)c32)n1)C12CCCN1CCC2 (stereo partly shown) [Ie-5]
15 | 8 |  |  | 77 | 134 | 3060 | 6680 | 5 | 98 | C[C@H]1CNCCCN1c1nccc(-c2onc3c2CCC[C@@]32CCCc3sc(N)c(C#N)c32)n1 [If-1]
16 | 15 | 89 (≈ 182 µM) | < 1 | 4670 | 8510 | 10900 | > 25000 | 6 |  | C[C@H](Oc1nccc(-c2onc3c2CCC[C@@]32CCCc3sc(N)c(C#N)c32)n1)[C@@H]1C[C@@H]2C[C@@H]2N1 [If-2]

Row | Structure (SMILES) | IC50 (KRAS (G12C)::SOS1) [nM] | solubility at 24 h [1, 3] [µg/mL] | solubility at 24 h [1, 4] [µg/mL] | GI50 (KRAS G12D Ba/F3 cells) [nM] | GI50 (KRAS G12C Ba/F3 cells) [nM] | IC50 (LOVO cells (CRC, G13D)) [nM] | IC50 [2] [nM] | IC50 (KRAS (G12D)::SOS1) [nM] | GI50 (KRAS G12V Ba/F3 cells) [nM]
17 | C[C@H]1CNCCN1c1nccc(-c2noc3c2CCC[C@@]32CCCc3sc(N)c(C#N)c32)n1 [IIf-1] |  |  |  |  |  | 479 | 1510 |  | 
